Reference: PMC2753476 (Proteins, 2009)

Target: T1, glOTC (Giardia duodenalis, UniProt O76458)
T1 sequence (O76458 1-327): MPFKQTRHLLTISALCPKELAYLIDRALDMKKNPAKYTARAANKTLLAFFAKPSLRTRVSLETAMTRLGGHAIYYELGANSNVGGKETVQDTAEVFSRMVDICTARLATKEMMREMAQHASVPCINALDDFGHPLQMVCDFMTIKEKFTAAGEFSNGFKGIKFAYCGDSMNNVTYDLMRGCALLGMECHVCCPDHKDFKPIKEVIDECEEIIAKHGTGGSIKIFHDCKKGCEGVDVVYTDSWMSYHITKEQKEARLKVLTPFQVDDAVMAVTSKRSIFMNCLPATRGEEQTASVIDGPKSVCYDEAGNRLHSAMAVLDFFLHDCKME
Assay: coupled spectrophotometric assay at […] nm
Type: biochemical

N[C@@H](CCCNC(=O)CP(=O)(O)O)C(=O)O [PALO, N-phosphonoacetyl-L-ornthine]
Ki: 25 ± 9 nM
